According to PubChem BioAssay AID336 (DTP/NCI, 2004):
Where “and” joins values, the source holds several entries; their conditions need not be identical. Identical values can stand only once. Toxic doses and inconclusive results are not listed. *1 amine or outer side, *2 acyl side, *3 side chain or, on linkers, in order; H or OH if unused. Where a SMILES comes first, the peptide text is derived from it. Bridges are numbered along the chain shown (N, C = ends). Roman numbers before positions name the chains, in order. [ ]: non-standard residue; d: D form. Actinocin(9to1) = Cc1c2oc3c(C)ccc(C(=O)[*:1])c3nc-2c(C(=O)[*:2])c(N)c1=O; aThr = C[C@H](O)[C@H](N)C(=O)O; NMeV = CN[C@H](C(=O)O)C(C)C; Sar = CNCC(=O)O

Test system: BDF1 mice, P388/VCR leukemia ip, median survival T/C
Assay: NCI In Vivo Anticancer Drug Screen. Data for tumor model P388 Leukemia resistant to Vincristine; NSC 67574 (intraperitoneal) in B6D2F1 (BDF1) mice
Conditions: endpoint: median survival time, higher = longer survival
Description: The antitumor activity of compounds was measured in mice bearing transplantable tumors. Survival or tumor size were measured and the results are expressed as the measurement made in the treated group (T) divided by the measurement made in the vehicle treated control group (C). The tumor model used in this assay is P388 Leukemia resistant to Vincristine; NSC 67574 (intraperitoneal) in B6D2F1 (BDF1) mice

[1] = dose: 15.0 mg/kg/injection, schedule: Q01DX010 (ip), vehicle: saline
[2] = dose: 0.5 mg/kg/injection, schedule: Q01DX010 (ip), vehicle: saline
[3] = dose: 1.0 mg/kg/injection, schedule: Q01DX010 (ip), vehicle: saline
[4] = dose: 16.0 mg/kg/injection, schedule: Q01DX010 (ip), vehicle: saline

COc1cc(-c2ccc(Nc3ccccc3C(=O)O)c(OC)c2)ccc1Nc1ccccc1C(=O)O
T/C (dose: 100.0 mg/kg/injection, schedule: Q01DX010 (ip), vehicle: saline): 150 % of control

Clc1ncnc2nc[nH]c12
T/C (dose: 7.5 mg/kg/injection, schedule: Q01DX010 (ip), vehicle: saline): 96 % of control and 119 % of control | T/C [1]: 92 % of control and 107 % of control | T/C (dose: 30.0 mg/kg/injection, schedule: Q01DX010 (ip), vehicle: saline): 107 % of control | T/C (dose: 60.0 mg/kg/injection, schedule: Q01DX010 (ip), vehicle: saline): 92 % of control

O=C1N[C@@H]([C@H]2CC[C@H](Cl)CN2)C(=O)N[C@H]1[C@H]1CC[C@H](Cl)CN1
T/C (dose: 2.4 mg/kg/injection, schedule: Q04DX003 (ip), vehicle: saline): 212 % of control | T/C (dose: 4.0 mg/kg/injection, schedule: Q04DX003 (ip), vehicle: saline): 225 % of control

Cc1cc(N(CCCl)CCCl)ccc1N=Nc1ccccc1C(=O)O
T/C (dose: 5.0 mg/kg/injection, schedule: Q01DX010 (ip), vehicle: saline): 91 % of control and 112 % of control

Nc1nc(=S)c2ncn(C3OC(CO)C(O)C3O)c2[nH]1 (stereo not drawn)
T/C [2]: 92 % of control | T/C [3]: 107 % of control | T/C (dose: 2.0 mg/kg/injection, schedule: Q01DX010 (ip), vehicle: saline): 155 % of control | T/C (dose: 4.0 mg/kg/injection, schedule: Q01DX010 (ip), vehicle: saline): 110 % of control | T/C (dose: 8.0 mg/kg/injection, schedule: Q01DX010 (ip), vehicle: saline): 105 % of control | T/C [4]: 100 % of control

Nc1nc(=S)c2[nH]cnc2[nH]1
T/C (dose: 1.25 mg/kg/injection, schedule: Q01DX010 (ip), vehicle: other): 165 % of control | T/C (dose: 5.0 mg/kg/injection, schedule: Q01DX010 (ip), vehicle: other): 103 % of control and 107 % of control

CCCCn1cnc2c(=S)nc[nH]c21
T/C [4]: 107 % of control | T/C (dose: 32.0 mg/kg/injection, schedule: Q01DX010 (ip), vehicle: saline): 96 % of control | T/C (dose: 64.0 mg/kg/injection, schedule: Q01DX010 (ip), vehicle: saline): 100 % of control

O=C(Nc1ccc(C2=NCCN2)cc1)c1ccc(C(=O)Nc2ccc(C3=NCCN3)cc2)c(F)c1
T/C (dose: 22.5 mg/kg/injection, schedule: Q01DX010 (ip), vehicle: saline): 100 % of control | T/C (dose: 45.0 mg/kg/injection, schedule: Q01DX010 (ip), vehicle: saline): 107 % of control | T/C (dose: 90.0 mg/kg/injection, schedule: Q01DX010 (ip), vehicle: saline): 123 % of control

Cc1c2oc3c(C)ccc(C(=O)N[C@@H]4C(=O)N[C@H](C(C)C)C(=O)N5CCC[C@H]5C(=O)N(C)CC(=O)N(C)[C@@H](C(C)C)C(=O)O[C@H]4C)c3nc-2c(C(=O)N[C@@H]2C(=O)N[C@H](C(C)C)C(=O)N3CCC[C@H]3C(=O)N(C)CC(=O)N(C)[C@@H](C(C)C)C(=O)O[C@H]2C)c(N)c1=O (I: [aThr][dV]P[Sar][NMeV] / II: [aThr][dV]P[Sar][NMeV]; ester I:1-I:C, II:1-II:C; linker I:N-II:N via Actinocin(9to1))
T/C (dose: 12.5 micrograms/kg/injection, schedule: Q01DX010 (ip), vehicle: other): 108 % of control and 112 % of control | T/C (dose: 25.0 micrograms/kg/injection, schedule: Q01DX010 (ip), vehicle: other): 124 % of control | T/C (dose: 108.0 micrograms/kg/injection, schedule: Q04DX003 (ip), vehicle: saline + alcohol): 103 % of control | T/C (dose: 180.0 micrograms/kg/injection, schedule: Q04DX003 (ip), vehicle: saline + alcohol): 110 % of control | T/C (dose: 300.0 micrograms/kg/injection, schedule: Q04DX003 (ip), vehicle: saline + alcohol): 106 % of control | T/C (dose: 500.0 micrograms/kg/injection, schedule: Q04DX003 (ip), vehicle: saline + alcohol): 93 % of control

O=C(Nc1ccc(C(=O)Nc2ccc(C3=NCCCN3)cc2)cc1)Nc1ccc(C2=NCCCN2)cc1
T/C (dose: 1.88 mg/kg/injection, schedule: Q01DX010 (ip), vehicle: saline): 116 % of control and 123 % of control | T/C (dose: 3.75 mg/kg/injection, schedule: Q01DX010 (ip), vehicle: saline): 116 % of control and 123 % of control | T/C [1]: 123 % of control

CS(=O)(=O)OCCN(CCOS(C)(=O)=O)c1ccc(N=O)cc1
T/C [2]: 150 % of control | T/C [3]: 150 % of control
